Reference: patent US20090233917A1, “Stroke recovery” (priority 2006, published 2009)
Entries after “also recorded” stand apart in the source; their conditions may differ.

Legend:
[1] = tested on: permanent middle cerebral artery occlusion (MCAO) in rats; assay: Functional recovery following permanent MCAO in rats (Example 1); assay type: in vivo, Sprague Dawley Rats
Description: The purpose of this study was to evaluate the efficacy of arimoclomol and iroxanadine in enhancing neurological recovery in a model of permanent middle cerebral artery occlusion (MCAO) in rats. The permanent MCAO is a well accepted and considered to be a standard animal model for studying clinical aspects of stroke. (Stroke. 1999; 30:2752-2758.)
Forty male Sprague Dawley Rats, each weighing 300-400 g, which had been housed and handled for behavioral assessment for seven (7) days prior to surgery for acclimation purposes, were operated under anesthesia to create focal cerebral infarcts by permanent occlusion of the proximal right middle cerebral artery (MCA) according to modified Tamura model. Briefly, the rats were anesthetized with 2-3% halothane in the mixture of N2O:O2 (2:1), and were maintained with 1˜1.5% halothane in the mixture of N2O:O2 (2:1). The temporalis muscle was bisected and reflected through an incision made midway between the eye and the eardrum canal. The proximal MCA was exposed through a subtemporal craniectomy without removing the zygomatic arch and without transecting the facial nerve. […] Body temperature was maintained at 37.5° C.±0.5° C. throughout the entire procedure. Cefazolin (40 mg/kg; Baxter, Lot 06014.1, Exp. January 2009) was given i.p. one day before MCAO and just after MCAO to prevent infections.
The rats were randomly divided into 4 groups of 10 animals each. One group was given arimoclomol, p.o., starting at one hour after the occlusion at 200 mg/kg/d once daily for 3 days, then 50 mg/kg/d once daily for a total of 29 days. The second group was given iroxanadine using the same dosing regimen as for arimoclomol. The third group is a positive control group and is given intracistemally 1 μg (at 20 μg/ml, also containing 100 μg/ml of bovine serum albumin) beta-fibroblast growth factor (bFGF) one hour and one day (i.e. two administrations) after the occlusion. The fourth group is a negative control with administration of the vehicle only.
Animals were evaluated preoperation (day −1), then every 7 days after the operation (7, 14, 21, and 28 days) by forelimb and hindlimb placing tests and body swing test, which are widely accepted as standard tests indicative of functional recovery after a stroke model.
For the forelimb placing test, the examiner held the rat close to a tabletop and scored the rat's ability to place the forelimb on the tabletop in response to whisker, visual, tactile, or proprioceptive stimulation. Similarly, for the hindlimb placing test, the examiner assessed the rat's ability to place the hindlimb on the tabletop in response to tactile and proprioceptive stimulation. Separate sub-scores were obtained for each mode of sensory input (halfpoint designations possible), and added to give total scores (for the forelimb placing test: 0=normal, 12=maximally impaired; for the hindlimb placing test: 0=normal; 6=maximally impaired).
For the body swing test, the rat was held approximately one inch from the base of its tail. It was then elevated to an inch above a surface of a table. The rat was held in the vertical axis, defined as no more than […] to either the left or the right side. A swing was recorded whenever the rat moved its head out of the vertical axis to either side. The rat must return to the vertical position for the next swing to be counted. Thirty (30) total swings were counted. A normal rat typically has an equal number of swings to either side. Following focal ischemia, the rat tends to swing to the contralateral (left) side.
The behavior was evaluated by giving the score ranging in the parentheses after each test: • Forelimb placing test (0-12), consisting of whisker tactile placing (0-2); visual placing (forward, sideways) (0-4); tactile placing (dorsal, lateral) (0-4); and proprioceptive placing (0-2); • Hindlimb placing test (0-6), consisting of tactile placing (dorsal, lateral) (0-4); and proprioceptive placing (0-2). […]

[2] = Cerebrospinal fluid (CSF) levels after oral administration in humans; assay type: in vivo, human; conditions: 3 and 6 hours after oral administration, increasing doses
[3] = tested on: healthy human volunteers; assay: Pharmacokinetic clinical study in healthy human volunteers; assay type: in vivo
Procedure: Seven healthy human volunteers were administered orally 400 mg t.i.d. dosing (1200 mg/day) in a double-blinded and placebo controlled clinical study.

[4] = treatment from 1 h after occlusion, up to 28 days

SMILES: [O-][n+]1cccc(/C(Cl)=N/OC[C@H](O)CN2CCCCC2)c1 [arimoclomol, N-[2-hydroxy-3-(1-piperidinyl)propoxy]-pyridine-1-oxide-3-carboximidoyl chloride]
- Infarct Volume (%) ([1]; day 28 after permanent MCAO, percentage of intact contralateral hemispheric volume, mean ± S.E.M.): 21.6 ± 3.6%
- Body Swing Test, recovery compared to vehicle group [1, 4]: superior to the vehicle group; also recorded: non-significant trend of enhanced recovery
- Forelimb Placing Test, recovery compared to vehicle group [1, 4]: superior to the vehicle group
- Hindlimb Placing Test, recovery compared to vehicle group [1, 4]: superior to the vehicle group
- penetration of the human blood-brain barrier (CSF levels) [2]: penetrates the human blood-brain barrier
- clinical abnormalities or changes (ECGs, vital signs, clinical chemistry, physical examination, body weight) ([3]; 400 mg t.i.d. (1200 mg/day) orally): No clinical abnormalities or changes were observed
- level of exposure of the 200 mg/kg/day rat PK study in humans ([3]; 400 mg t.i.d. orally, AUC and Cmax, FIG. 15): can be safely achieved in human volunteers
